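Five compound concentrations were applied to cells in 96-well plates for 48 hours; endpoints were derived by simple linear interpolation of the resulting dose-response curve. GI50 = concentration required for 50% inhibition of growth. TGI: total growth inhibition.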 Where a SMILES comes first, the peptide text is derived from it. The star is where a group is joined. Cbz = O=C(OCc1ccccc1)*
Tests used:
Test in all cases: NCI anticancer screen, dose series, 48 h
U251 CNS = test system: U251 CNS
K-562 leukemia = test system: K-562 leukemia
SN12C renal = test system: SN12C renal
A549 NSCLC = test system: A549 NSCLC
UACC-257 melanoma = test system: UACC-257 melanoma
NCI-H522 lung = test system: NCI-H522 lung
OVCAR-8 ovarian = test system: OVCAR-8 ovarian
HOP-92 NSCLC = test system: HOP-92 NSCLC
MALME-3M melanoma = test system: MALME-3M melanoma
HT29 colon = test system: HT29 colon

`Cc1ccc(C)c(COCCOCn2c(=O)[nH]c(=O)c3cc(Br)ccc32)c1` was tested, and the TGI (U251 CNS) was > 100 µM, the TGI (K-562 leukemia) was > 100 µM and the TGI (SN12C renal) was > 100 µM. For the same compound, the TGI (A549 NSCLC) was > 100 µM, the TGI (UACC-257 melanoma) was > 100 µM and the TGI (NCI-H522 lung) was > 100 µM. The TGI (OVCAR-8 ovarian) was > 100 µM, the TGI (HOP-92 NSCLC) was > 100 µM and the TGI (MALME-3M melanoma) was > 100 µM. The TGI (HT29 colon) was > 100 µM.

For `NC(=O)C1CCCN1C(=O)N(CCCl)N=O` (stereo not given), the TGI (U251 CNS) was > 100 µM, the TGI (K-562 leukemia) was > 100 µM and the TGI (SN12C renal) was > 100 µM. For the same compound, the TGI (A549 NSCLC) was > 100 µM, the TGI (UACC-257 melanoma) was > 100 µM and the TGI (NCI-H522 lung) was > 100 µM. For the same compound, the TGI (OVCAR-8 ovarian) was > 100 µM, the TGI (HOP-92 NSCLC) was > 100 µM and the TGI (MALME-3M melanoma) was > 100 µM. The TGI (HT29 colon) was > 100 µM.

With `Nc1[nH]c(=S)c2c(N)n[nH]c2c1C(=O)Nc1ccc(Cl)cc1` the TGI (U251 CNS) was > 100 µM, the TGI (K-562 leukemia) was > 100 µM and the TGI (SN12C renal) was > 100 µM. For the same compound, the TGI (A549 NSCLC) was > 100 µM, the TGI (UACC-257 melanoma) was > 100 µM and the TGI (NCI-H522 lung) was > 100 µM. The TGI (OVCAR-8 ovarian) was > 100 µM, the TGI (HOP-92 NSCLC) was > 100 µM and the TGI (MALME-3M melanoma) was > 100 µM. For the same compound, the TGI (HT29 colon) was > 100 µM.

In the case of `COC[C@@H](N=CN1CCc2cc(OC)c(OC)cc2C1)C(C)(C)C`, the TGI (U251 CNS) is reported as > 100 µM, the TGI (K-562 leukemia) is reported as > 100 µM and the TGI (SN12C renal) is reported as > 100 µM. The TGI (A549 NSCLC) was > 100 µM, the TGI (UACC-257 melanoma) was > 100 µM and the TGI (NCI-H522 lung) was > 100 µM. The TGI (OVCAR-8 ovarian) was > 100 µM, the TGI (HOP-92 NSCLC) was > 100 µM and the TGI (MALME-3M melanoma) was > 100 µM. For the same compound, the TGI (HT29 colon) was > 100 µM.

In the case of `COc1ccc(-c2cc(-c3ccccc3)nc3c2CC(=O)Nc2ccccc2-3)cc1OC`, the TGI (U251 CNS) is reported as > 100 µM, the TGI (K-562 leukemia) is reported as > 100 µM and the TGI (SN12C renal) is reported as > 100 µM. For the same compound, the TGI (A549 NSCLC) was > 36.3 µM, the TGI (UACC-257 melanoma) was > 100 µM and the TGI (NCI-H522 lung) was > 100 µM. For the same compound, the TGI (OVCAR-8 ovarian) was 0.447 µM, the TGI (HOP-92 NSCLC) was > 100 µM and the TGI (MALME-3M melanoma) was > 70.3 µM. For the same compound, the TGI (HT29 colon) was > 100 µM.

With `CCn1c(=O)c2c3cc(OC(C)=O)ccc3oc2c2ccc(OC(C)=O)cc21` the TGI (U251 CNS) was > 100 µM, the TGI (K-562 leukemia) was > 100 µM and the TGI (SN12C renal) was > 100 µM. For the same compound, the TGI (A549 NSCLC) was > 100 µM, the TGI (UACC-257 melanoma) was > 100 µM and the TGI (NCI-H522 lung) was > 100 µM. For the same compound, the TGI (OVCAR-8 ovarian) was > 100 µM, the TGI (HOP-92 NSCLC) was 90.5 µM and the TGI (MALME-3M melanoma) was > 100 µM. The TGI (HT29 colon) was > 100 µM.

In the case of `NC(=S)N/N=C1\CCCCC1C(O)(C(F)(F)Cl)C(F)(F)Cl` (stereo not given), the TGI (U251 CNS) is reported as > 10 µM, the TGI (K-562 leukemia) is reported as > 10 µM and the TGI (SN12C renal) is reported as > 10 µM. The TGI (A549 NSCLC) was > 10 µM, the TGI (UACC-257 melanoma) was > 10 µM and the TGI (NCI-H522 lung) was > 10 µM. For the same compound, the TGI (OVCAR-8 ovarian) was > 10 µM, the TGI (HOP-92 NSCLC) was > 10 µM and the TGI (MALME-3M melanoma) was > 10 µM. For the same compound, the TGI (HT29 colon) was > 10 µM.

`C[C@]12CCc3sc(-c4cccc(F)c4)nc3C1=CC[C@@H]1[C@@H]2CC[C@]2(C)C(=O)CC[C@@H]12` was tested, and the GI50 (U251 CNS) was 2 µM, the TGI (U251 CNS) was 13.6 µM and the GI50 (K-562 leukemia) was 1.82 µM. The TGI (K-562 leukemia) was 9.08 µM, the GI50 (SN12C renal) was 3.01 µM and the TGI (SN12C renal) was > 100 µM. It also gave a GI50 (A549 NSCLC) of 3.95 µM, a TGI (A549 NSCLC) of 31.5 µM and a GI50 (UACC-257 melanoma) of 6.12 µM. The TGI (UACC-257 melanoma) was > 100 µM, the GI50 (NCI-H522 lung) was 2.4 µM and the TGI (NCI-H522 lung) was 6.35 µM. The GI50 (OVCAR-8 ovarian) was 3.45 µM, the TGI (OVCAR-8 ovarian) was > 100 µM and the GI50 (HOP-92 NSCLC) was 2.44 µM. For the same compound, the TGI (HOP-92 NSCLC) was 5.63 µM, the GI50 (MALME-3M melanoma) was 1.8 µM and the TGI (MALME-3M melanoma) was 4.13 µM. The GI50 (HT29 colon) was 2.69 µM and the TGI (HT29 colon) was > 100 µM.

For `CNc1nc2c(C)ccc3[nH]c(N(C)C)nc3c-2n1`, the TGI (U251 CNS) was > 100 µM, the TGI (K-562 leukemia) was 45 µM and the TGI (SN12C renal) was > 100 µM. For the same compound, the TGI (A549 NSCLC) was > 100 µM, the TGI (UACC-257 melanoma) was > 100 µM and the TGI (NCI-H522 lung) was > 100 µM. The TGI (OVCAR-8 ovarian) was > 100 µM, the TGI (HOP-92 NSCLC) was > 100 µM and the TGI (MALME-3M melanoma) was 95.6 µM. The TGI (HT29 colon) was > 100 µM.

For `O[C@H]1[C@H](O)[C@@H](Cn2nnc(-c3ccccc3)c2-c2ccccc2)OCO[C@@H]1Cn1nnc(-c2ccccc2)c1-c1ccccc1`, the TGI (U251 CNS) was > 41 µM, the TGI (K-562 leukemia) was > 100 µM and the TGI (SN12C renal) was 7.55 µM. For the same compound, the TGI (A549 NSCLC) was 13.5 µM, the TGI (UACC-257 melanoma) was 15.1 µM and the TGI (NCI-H522 lung) was 21.5 µM. The TGI (OVCAR-8 ovarian) was 18.1 µM, the TGI (HOP-92 NSCLC) was 8.23 µM and the TGI (MALME-3M melanoma) was 29.6 µM. The TGI (HT29 colon) was 3.61 µM.

With `NC(N)=NS(=O)(=O)c1ccc(NC(=O)c2ccc3nc4ccccc4c(N)c3c2)cc1` the TGI (U251 CNS) was > 100 µM, the TGI (K-562 leukemia) was > 100 µM and the TGI (SN12C renal) was > 100 µM. For the same compound, the TGI (A549 NSCLC) was > 100 µM, the TGI (UACC-257 melanoma) was > 100 µM and the TGI (NCI-H522 lung) was > 100 µM. The TGI (OVCAR-8 ovarian) was > 100 µM, the TGI (HOP-92 NSCLC) was > 100 µM and the TGI (MALME-3M melanoma) was > 100 µM. For the same compound, the TGI (HT29 colon) was > 100 µM.

For `CSc1ccc2c(cc1=O)[C@@H](NC(=O)c1ccc([N+](=O)[O-])cc1)CCc1cc(O)c(O)c(O)c1-2`, the TGI (U251 CNS) was > 100 µM, the TGI (K-562 leukemia) was > 100 µM and the TGI (SN12C renal) was 62.5 µM. The TGI (A549 NSCLC) was 77.7 µM, the TGI (UACC-257 melanoma) was > 100 µM and the TGI (NCI-H522 lung) was > 100 µM. The TGI (OVCAR-8 ovarian) was > 100 µM, the TGI (HOP-92 NSCLC) was > 100 µM and the TGI (MALME-3M melanoma) was > 100 µM. For the same compound, the TGI (HT29 colon) was 40.8 µM.

For `CC(C)(SCc1ccccc1)C(N)C(=O)O` (stereo not given), the TGI (U251 CNS) was > 100 µM, the TGI (K-562 leukemia) was > 100 µM and the TGI (SN12C renal) was > 100 µM. The TGI (A549 NSCLC) was > 100 µM, the TGI (UACC-257 melanoma) was > 100 µM and the TGI (NCI-H522 lung) was > 100 µM. The TGI (OVCAR-8 ovarian) was > 100 µM, the TGI (HOP-92 NSCLC) was > 100 µM and the TGI (MALME-3M melanoma) was > 100 µM. The TGI (HT29 colon) was > 100 µM.

For `CCOC(=O)CNC(=O)C(C)NC(=O)C(NC(=O)OCc1ccccc1)C(C)C` (stereo not drawn) (Cbz-Val-Ala-Gly-OEt; configuration not given here), the TGI (U251 CNS) was > 100 µM, the TGI (K-562 leukemia) was > 100 µM and the TGI (SN12C renal) was > 100 µM. The TGI (A549 NSCLC) was > 100 µM, the TGI (UACC-257 melanoma) was > 100 µM and the TGI (NCI-H522 lung) was > 100 µM. The TGI (OVCAR-8 ovarian) was > 100 µM, the TGI (HOP-92 NSCLC) was > 100 µM and the TGI (MALME-3M melanoma) was > 100 µM. The TGI (HT29 colon) was > 100 µM.

In the case of `O=C1C2CC=CCC2C(=O)N1n1c(Cc2ccccc2)n[nH]c1=O` (stereo not given), the TGI (U251 CNS) is reported as > 100 µM, the TGI (K-562 leukemia) is reported as > 100 µM and the TGI (SN12C renal) is reported as > 100 µM. The TGI (A549 NSCLC) was > 100 µM, the TGI (UACC-257 melanoma) was > 100 µM and the TGI (NCI-H522 lung) was > 100 µM. For the same compound, the TGI (OVCAR-8 ovarian) was > 100 µM, the TGI (HOP-92 NSCLC) was > 100 µM and the TGI (MALME-3M melanoma) was > 100 µM. For the same compound, the TGI (HT29 colon) was > 100 µM.

For `CC#CCCCC1(C)CCCNC1=S` (stereo not given), the TGI (U251 CNS) was > 10 µM, the TGI (K-562 leukemia) was > 10 µM and the TGI (SN12C renal) was > 10 µM. For the same compound, the TGI (A549 NSCLC) was > 10 µM, the TGI (UACC-257 melanoma) was > 10 µM and the TGI (NCI-H522 lung) was > 10 µM. The TGI (OVCAR-8 ovarian) was > 10 µM, the TGI (HOP-92 NSCLC) was > 10 µM and the TGI (MALME-3M melanoma) was > 10 µM. For the same compound, the TGI (HT29 colon) was > 10 µM.

`Cc1cc(=O)c2ccccc2n1CCCCCCCCCCn1c(C)cc(=O)c2ccccc21` gave a TGI (U251 CNS) of 29 µM, a TGI (K-562 leukemia) of 17.9 µM and a TGI (SN12C renal) of 43.3 µM. It also gave a TGI (A549 NSCLC) of 56.2 µM, a TGI (UACC-257 melanoma) of 25.2 µM and a TGI (NCI-H522 lung) of 32.9 µM. For the same compound, the TGI (OVCAR-8 ovarian) was 46.7 µM, the TGI (HOP-92 NSCLC) was 38.5 µM and the TGI (MALME-3M melanoma) was 34.4 µM. The TGI (HT29 colon) was 29.9 µM.

For `CN(C)Cc1cc(C(=O)/C=C/c2ccc(F)cc2)cc(CN(C)C)c1O`, the TGI (U251 CNS) was > 100 µM, the TGI (K-562 leukemia) was 62.5 µM and the TGI (SN12C renal) was > 100 µM. For the same compound, the TGI (A549 NSCLC) was > 100 µM, the TGI (UACC-257 melanoma) was 31 µM and the TGI (NCI-H522 lung) was 31.7 µM. The TGI (OVCAR-8 ovarian) was 83.9 µM, the TGI (HOP-92 NSCLC) was 97.5 µM and the TGI (MALME-3M melanoma) was 36.5 µM. For the same compound, the TGI (HT29 colon) was > 100 µM.

Source: PubChem BioAssay (NCI)
